IC50 data for 30 compounds are collected here from patent US20230250096A1, “SUBSTITUTED PHENYL-1H-PYRROLO[2,3-c] PYRIDINE DERIVATIVES” (Janssen Pharmaceutica NV, priority 2021, published 2023).

Assay [1] concerns the target T1, menin/MLL (terbium chelate-labeled menin, FITC-MBM1 peptide) (Homo sapiens, UniProt O00255, T541A).
T1 construct: Menin (a.a 1-610-6xhis tag, 2.3 mg/mL in 20 mM Hepes)
T1 sequence (O00255 with tags, fused parts or gaps T541A): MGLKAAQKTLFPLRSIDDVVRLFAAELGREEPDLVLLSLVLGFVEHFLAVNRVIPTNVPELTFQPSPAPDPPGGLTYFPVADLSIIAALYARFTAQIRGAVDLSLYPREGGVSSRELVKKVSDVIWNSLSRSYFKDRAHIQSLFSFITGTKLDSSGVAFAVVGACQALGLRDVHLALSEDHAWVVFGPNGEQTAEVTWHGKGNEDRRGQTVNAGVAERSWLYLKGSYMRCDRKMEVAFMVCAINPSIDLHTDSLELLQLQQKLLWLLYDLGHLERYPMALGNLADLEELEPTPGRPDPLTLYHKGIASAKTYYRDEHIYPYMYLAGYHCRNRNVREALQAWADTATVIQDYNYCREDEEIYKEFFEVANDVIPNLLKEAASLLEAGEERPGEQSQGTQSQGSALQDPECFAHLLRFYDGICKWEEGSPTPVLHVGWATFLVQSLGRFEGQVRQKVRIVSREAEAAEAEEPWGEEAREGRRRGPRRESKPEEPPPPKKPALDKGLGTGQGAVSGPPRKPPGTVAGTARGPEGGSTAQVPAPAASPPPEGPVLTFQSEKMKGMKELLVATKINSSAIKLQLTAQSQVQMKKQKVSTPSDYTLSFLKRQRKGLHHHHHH
The assay can be described thus: Menin/MLL homogenous time-resolved fluorescence (HTRF) assay. Type of assay: binding. The note with it: 30 min incubation. Summed up:
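Terbium-labeled menin (a.a. 1-610, His-tagged; […]) pre-incubated 30 min with compound, then 75 nM FITC-MBM1 peptide added for 15 min at ambient temperature in Tris pH 7.5 buffer, 0.5% DMSO. HTRF 520/490 nm ratio read; IC50 from 11-point four-fold titrations, typically from 10 μM.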
Background: In TR-FRET formats the signal depends on donor and acceptor labels being close together.

A further assay has as its system MEIS1 mRNA expression. The assay can be described thus: MEIS1 mRNA expression assay (Quantigene Singleplex) in MOLM14 cells. Type of assay: cell-based, human. The note with it: 48 hours incubation. Summed up:
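MOLM14 cells, 3,750/well, exposed to increasing compound concentrations for 48 h. MEIS1 mRNA measured by QuantiGene Singleplex branched-DNA hybridization (lysis 45 min, hybridization 18–22 h, both 55 °C), normalized to RPL28. IC50 fitted to background-corrected fold change versus DMSO.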

Usually IC50 stands for the concentration that gives 50% inhibition. A low value points to greater potency in that assay. On to `CC(=O)N1CCC(C)(CN2CC[C@@H](Cc3cn(-c4ccc(F)cc4C(=O)N(C[C@H](C)O)C(C)C)c4cncc(C)c34)C2)CC1` [Compound 338], for which the IC50 in assay [1] was found to be 0.185 nM; in the assay with MEIS1 mRNA expression (Homo sapiens, MOLM-14, 48 h) it was 37 nM.

Take `CC(=O)N1C[C@@H]2CN(CCC[C@H](C(C)C)N3CC[C@@H](Cc4cn(-c5ccc(F)cc5C(=O)N(C)C(C)C)c5cncc(Cl)c45)C3)C[C@H]2C1` (single isomer, unassigned) [Compound 18a]: the 50% inhibitory concentration (IC50) in assay [1] worked out at 0.019 nM; in the assay on MEIS1 mRNA expression (Homo sapiens, MOLM-14, 48 h), 5 nM.

For `Cc1cncc2c1c(C[C@@H]1CCN([C@@H](CN(C)C)C3CCOCC3)C1)cn2-c1ccc(F)cc1C(=O)N(C)C(C)C` (single isomer, unassigned) [Compound 240a], the IC50 worked out at 0.407 nM in assay [1] and 291 nM with MEIS1 mRNA expression (Homo sapiens, MOLM-14, 48 h).

On to `CC(=O)N1CC2CCC(N3CC(Cc4cn(-c5ccc(F)cc5C(=O)N(C)C(C)C)c5cncc(C)c45)C3)C2C1` (stereo not drawn) [Compound 306], for which the IC50 was 0.468 nM in assay [1] and 159 nM in the assay on MEIS1 mRNA expression (Homo sapiens, MOLM-14, 48 h).

Turning to `Cc1cncc2c1c(CC1CCN(CC3CCN(C(=O)CC4CS(=O)(=O)C4)CC3)C1)cn2-c1ccc(F)cc1C(=O)N(C)C(C)C` (single isomer, unassigned) [Compound 106], the half-maximal inhibitory concentration (IC50) was 0.039 nM in assay [1] and 104 nM with MEIS1 mRNA expression (Homo sapiens, MOLM-14, 48 h).

`CNC(=O)c1cccc(CN2CC(Cc3cn(-c4ccc(F)cc4C(=O)N(C)C(C)C)c4cncc(C)c34)C2)c1` [Compound 283]: the IC50 in assay [1] stood at 0.61 nM; with MEIS1 mRNA expression (Homo sapiens, MOLM-14, 48 h), 440 nM.

For `CC[C@@H]([C@H]1C[C@@H](N2C[C@H]3CN(C(C)=O)C[C@@H]3C2)C1)N1CC[C@H](Cc2cn(-c3ccc(F)cc3C(=O)N(C)C(C)C)c3cncc(Cl)c23)C1` (single isomer, unassigned) [Compound 27c], the IC50 in assay [1] came to 0.038 nM; in the assay on MEIS1 mRNA expression (Homo sapiens, MOLM-14, 48 h), 40 nM.

For `CCN(C(=O)c1cc(F)ccc1-n1cc(C[C@@H]2CCN(CC3CCN(C(C)=O)CC3)C2)c2c(C)cncc21)C(C)C` [Compound 255], the IC50 in assay [1] stood at 0.102 nM; with MEIS1 mRNA expression (Homo sapiens, MOLM-14, 48 h) it was 10 nM.

Consider `CC(=O)N1CCC(C)(CN2CC[C@@H](Cc3cn(-c4ccc(F)cc4C(=O)N(C[C@@H](C)O)C(C)C)c4cncc(C)c34)C2)CC1` [Compound 339], for which the half-inhibitory concentration (IC50) in assay [1] is 0.193 nM; in the assay on MEIS1 mRNA expression (Homo sapiens, MOLM-14, 48 h) it was 68 nM.

In the case of `Cc1cncc2c1c(C[C@H]1CCN(CC3COC3)C1)cn2-c1ccc(F)cc1C(=O)N(C)C(C)C` (single isomer, unassigned) [Compound 47], the IC50 is 0.042 nM in assay [1] and 55 nM in the assay on MEIS1 mRNA expression (Homo sapiens, MOLM-14, 48 h).

`CC(=O)N1CCC(CN2CC[C@H](Cc3cn(-c4ccc(F)cc4[S@@]4(=O)=NCCC4)c4cncc(C)c34)C2)CC1` (single isomer, unassigned) [Compound 224a]: the IC50 in assay [1] was 30.7 nM; with MEIS1 mRNA expression (Homo sapiens, MOLM-14, 48 h) it was over 1000 nM.

Take `Cc1cncc2c1c(CC1CN(CC(=O)N3CCOCC3)C1)cn2-c1ccc(F)cc1C(=O)N(C)C(C)C` [Compound 83]: the concentration for half-maximal inhibition (IC50) worked out at 1.3 nM in assay [1] and 2220 nM in the assay with MEIS1 mRNA expression (Homo sapiens, MOLM-14, 48 h).

`CC(=O)N1C[C@@H]2CN(CCC[C@@H](C(C)C)N3CC[C@@H](Cc4cn(-c5ccc(F)cc5C(=O)N(C)C(C)C)c5cncc(Cl)c45)C3)C[C@H]2C1` (single isomer, unassigned) [Compound 18b]: the IC50 worked out at 0.017 nM in assay [1] and 110 nM with MEIS1 mRNA expression (Homo sapiens, MOLM-14, 48 h).

As to `Cc1cncc2c1c(C=C1CCN(C)C1)cn2-c1ccc(F)cc1C(=O)N(C)C(C)C` (single isomer, unassigned) [Compound 524b], the IC50 in assay [1] worked out at 8.62 nM; with MEIS1 mRNA expression (Homo sapiens, MOLM-14, 48 h), 2120 nM.

For `Cc1cncc2c1c(CC1CCN(CC3CCN(C(=O)C(C)(C)O)CC3)CC1)cn2-c1ccc(F)cc1C(=O)N(C)C(C)C` [Compound 237], the IC50 turned out to be 0.149 nM in assay [1] and 52 nM with MEIS1 mRNA expression (Homo sapiens, MOLM-14, 48 h).

Consider `Cc1cncc2c1c(C=C1CCN(C)C1)cn2-c1ccc(F)cc1C(=O)N(C)C(C)C` (single isomer, unassigned) [Compound 524a], for which the IC50 is 19 nM in assay [1] and 2560 nM in the assay with MEIS1 mRNA expression.

For the compound `CC(=O)N1CC[C@@H](CN2CCC(Cc3cn(-c4ccc(F)cc4C(=O)N(C)C(C)C)c4cncc(C)c34)C2)C1` (single isomer, unassigned) [Compound 99], the IC50 in assay [1] is 0.217 nM; with MEIS1 mRNA expression (Homo sapiens, MOLM-14, 48 h) it was about 792 nM.

Regarding `Cc1cncc2c1c(C[C@@H]1CCN(C[C@H]3CC[C@H](C(=O)N4CCC4)CC3)C1)cn2-c1ccc(F)cc1C(=O)N(C)C(C)C` [Compound 179], the IC50 in assay [1] came to 0.405 nM; with MEIS1 mRNA expression (Homo sapiens, MOLM-14, 48 h), 259 nM.

In the case of `CC(=O)N1CC[C@@H](CN2CCC(Cc3cn(-c4ccc(F)cc4C(=O)N(C)C(C)C)c4cncc(C)c34)CC2)C1` [Compound 112], the IC50 in assay [1] amounted to 0.555 nM; in the assay on MEIS1 mRNA expression (Homo sapiens, MOLM-14, 48 h) it was 345 nM.

As for `COC(=O)N1CCC(CN2CC(Cc3cn(-c4ccc(F)cc4C(=O)N(C)C(C)C)c4cncc(C)c34)C2)CC1` [Compound 65], the IC50 in assay [1] turned out to be 0.079 nM; in the assay with MEIS1 mRNA expression (Homo sapiens, MOLM-14, 48 h) it was 45 nM.

As for `CC(=O)N1CCC(CN2CC[C@@H](Cc3cn(-c4ccc(F)cc4C(=O)N(C[C@H](C)O)C(C)C)c4cncc(C)c34)C2)CC1` (single isomer, unassigned) [Compound 320b], the IC50 is 0.104 nM in assay [1] and 62 nM in the assay with MEIS1 mRNA expression (Homo sapiens, MOLM-14, 48 h).

`COCCN(C)CCCC(C(C)C)N1CCC(Cc2cn(-c3ccc(F)cc3C(=O)N(C)C(C)C)c3cncc(C(F)(F)F)c23)C1` (stereo not drawn) [Compound 7]: the IC50 was 0.305 nM in assay [1] and 158 nM in the assay with MEIS1 mRNA expression (Homo sapiens, MOLM-14, 48 h).

Take `Cc1cncc2c1c(C[C@H]1CCN(C(CCCN3CCC(S(C)(=O)=O)CC3)C(C)C)C1)cn2-c1ccc(F)cc1C(=O)N(C)C(C)C` (mixture of isomers) [Compound 11]: the IC50 worked out at 0.034 nM in assay [1] and 6 nM in the assay on MEIS1 mRNA expression (Homo sapiens, MOLM-14, 48 h).

As to `CC(=O)N1CC[C@H](CN2CCC(Cc3cn(-c4ccc(F)cc4C(=O)N(C)C(C)C)c4cncc(C)c34)C2)C1` (single isomer, unassigned) [Compound 100], the IC50 in assay [1] was determined as 0.165 nM; in the assay on MEIS1 mRNA expression (Homo sapiens, MOLM-14, 48 h) it was 434 nM.

For `CC(=O)N1C[C@@H]2CN([C@H]3C[C@@H](CN4CC[C@@H](Cc5cn(-c6ccc(F)cc6C(=O)N(C)C(C)C)c6cncc(C)c56)C4)C3)C[C@H]2C1` (single isomer, unassigned) [Compound 30], the IC50 in assay [1] is about 0.49 nM; in the assay with MEIS1 mRNA expression (Homo sapiens, MOLM-14, 48 h) it was over 1000 nM.

Turning to `CC(=O)N1CCC(CN2CC[C@@H](Cc3cn(-c4ccc(F)cc4C(=O)N(C[C@@H](C)O)C(C)C)c4cncc(C)c34)C2)CC1` (single isomer, unassigned) [Compound 320a], the IC50 in assay [1] amounted to 0.189 nM; in the assay on MEIS1 mRNA expression (Homo sapiens, MOLM-14, 48 h) it was 24 nM.

As to `CC(=O)N1CCC(CN2CCC[C@H](Cc3cn(-c4ccc(F)cc4C(=O)N(C)C(C)C)c4cncc(C)c34)C2)CC1` [Compound 145], the IC50 is 1.06 nM in assay [1] and about 748 nM with MEIS1 mRNA expression (Homo sapiens, MOLM-14, 48 h).

Consider `COC(=O)N1CCC(CN2CC[C@@H](Cc3cn(-c4ccc(F)cc4C(=O)N(C[C@@H](C)O)C(C)C)c4cncc(C)c34)C2)CC1` [Compound 336], for which the IC50 in assay [1] came out at 0.128 nM; with MEIS1 mRNA expression (Homo sapiens, MOLM-14, 48 h), 33 nM.

`COC1CC(C)N(C(=O)c2cc(F)ccc2-n2cc(C[C@@H]3CCN(CC4CCN(C(C)=O)CC4)C3)c3c(C)cncc32)C1` (stereo partly drawn) [Compound 318]: the IC50 amounted to 0.22 nM in assay [1] and 1380 nM with MEIS1 mRNA expression (Homo sapiens, MOLM-14, 48 h).

As to `Cc1cncc2c1c(C[C@@H]1CCN(C3CCNC(=O)CC3)C1)cn2-c1ccc(F)cc1C(=O)N(C)C(C)C` (mixture of isomers) [Compound 139], the IC50 came out at 0.119 nM in assay [1] and 444 nM in the assay on MEIS1 mRNA expression (Homo sapiens, MOLM-14, 48 h).
